Results reported in patent US8445510B2, “Fused bicyclic kinase inhibitors” (OSI Pharmaceuticals, LLC, priority 2011, dated 2013).

Tests used:
Type in all cases: cell-based
RON = target: T1, RON (Homo sapiens, UniProt Q04912); experiment: sfRON cell mechanistic assay (HeLa), phosphorylated RON ELISA; details: HeLa cells transfected with sfRON; inhibition of phosphorylated RON; four hours incubation; at least duplicate experiments; read-out: sfRON mech IC50
T1 sequence (Q04912 913-1400): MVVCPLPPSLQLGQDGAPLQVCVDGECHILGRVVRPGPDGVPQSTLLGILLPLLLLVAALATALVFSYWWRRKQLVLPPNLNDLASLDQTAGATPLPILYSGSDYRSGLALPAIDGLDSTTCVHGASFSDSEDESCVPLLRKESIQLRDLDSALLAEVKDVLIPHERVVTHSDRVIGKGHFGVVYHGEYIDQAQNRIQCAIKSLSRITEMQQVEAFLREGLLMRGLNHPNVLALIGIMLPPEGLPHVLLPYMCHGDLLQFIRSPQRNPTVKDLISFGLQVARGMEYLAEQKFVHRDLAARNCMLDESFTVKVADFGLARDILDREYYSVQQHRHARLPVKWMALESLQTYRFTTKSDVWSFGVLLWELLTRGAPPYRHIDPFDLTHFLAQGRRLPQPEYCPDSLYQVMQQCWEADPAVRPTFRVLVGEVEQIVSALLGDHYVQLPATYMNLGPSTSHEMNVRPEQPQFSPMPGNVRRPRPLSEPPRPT
Method: The cellular activity of the compounds of the present invention against RON may be determined by the following procedure. HeLa cells were plated in Falcon 3072 96-well plates in growth media (DMEM, 10% FBS, 1% L-glutamine) at a density of 10000 cells/well and incubated at 37° C., 5% CO2 overnight. The following day, cells were transfected with 0.2 μg sfRON-pcDNA plasmid DNA with 0.5 μL Lipofectamine-2000 per well in the presence of 50 μL OPTI-MEM, incubated at 37° C., 5% CO2 overnight. Costar 3915 96-well assay plates were coated with rabbit Anti-RON antibody at 2.0 μg/mL, sealed, and incubated overnight at 4° C. On the third day, coated plates were washed with PBS and blocked with 3% BSA. For the sfRON transfected cells, one-tenth volume of a 10× concentration of compounds was added to the wells in a 6-point dilution series. The dilution series was composed of an initial 1:5 dilution of a 10 mM DMSO stock solution of compound in DMSO, followed by a 1:10 dilution in growth media, for a final DMSO concentration on cells of 0.5%. Control wells were treated with 0.5% DMSO. The typical range of dilution was 10 μM to 3 nM. Once compound was added to the cells, plates were incubated for four hours at 37° C., 5% CO2. Plates were then washed in PBS, and lysed in triton-based lysis buffer. Lysates were transferred to the blocked capture plates. The phosphorylated RON levels were measured by incubating with a Goat polyclonal antibody against phosphorylated RON ([pYpY1238/1239]) followed by an anti-Goat antibody conjugated to HRP. Signal was measured on a Wallac Victor plate reader with luminance. The DMSO signal of the control wells was defined as 100% and the percent of inhibition of phosphorylated RON was expressed as percent of control. IC50 values were determined from the percent of control data using a standard four-parameter model.
The IC50 values of exemplary compounds of the present invention determined in a sfRON cell mechanistic assay using the HeLa cell line according to the procedures described herein in at least duplicate experiments are abbreviated as follows and are shown in Table 3: A, IC50≦0.2 μM; B, 0.2 μM<IC50≦1.0 μM; C, IC50>1 μM; ND, not determined. The Example # of Table 3 corresponds to the compound example number as illustrated in the Examples section.

Karpas-299 cells = experiment: Karpas-299 cell proliferation assay (CellTiter-Glo); details: Homo sapiens, 72 h; Karpas-299 cell line (NPM-ALK); 3 days incubation; at least duplicate experiments; read-out: Prolif. IC50
Method: The effect of inhibitors on the proliferation of Karpas-299 cells (DSMZ no. ACC 31) was determined using the following protocol. Karpas-299 cells were plated in 96-well white tissue culture treated plates (Corning 3917) in growth medium (RPMI, 10% FCS) at a density of 5000 cells/well in a total volume of 135 μL and incubated at 37° C., 5% CO2, 95% humidity overnight. The following day, one-tenth volume of a 10× concentration of compounds was added to the wells in an 8-point dilution series. Compounds were serially diluted (1:4) in DMSO from a 10 mM stock solution prior to dilution in growth media to the 10× working concentrations (5% DMSO). Final concentration of DMSO in compound-treated wells was 0.5%. Control wells containing growth media or growth media/0.5% DMSO were included in all test plates. […] Once the compounds were added to the cells, plates were incubated for 3 days at 37° C., 5% CO2 at 95% humidity. After 72 hours, all cells and reagents were equilibrated to room temperature and 15 μL of CellTiter-Glo reagent (Promega # G7573) was added to each well. Plates were shaken on a platform for 10 minutes at room temperature prior to reading luminescence. The value of the signal of the control wells was set as 100% growth and growth inhibition was expressed as percent of control. IC50 values were determined from the percent of control data using a standard four-parameter curve fit equation.
(§1) The IC50 values of exemplary compounds of the present invention determined in a cell proliferation assay using the Karpas-299 cell line according to the procedures described herein in at least duplicate experiments are abbreviated as follows and are shown in Table 5: A, IC50≦0.05 μM; B, 0.05 μM<IC50≦0.2 μM; C, 0.2 μM<IC50≦1 μM; D, IC50>1 μM; ND, not determined. The Example # of Table 5 corresponds to the compound example number as illustrated in the Examples section.
The Karpas-299 cell line has a t(2; 5) chromosomal translocation and expresses the NPM-ALK fusion protein, resulting in constitutively active ALK. […] Ther. 6(12):3314-22 (2007)]. With this “ALK-driven” cell line, the cell proliferation IC50 values can thus be used as surrogate for the p-ALK cell mechanistic IC50 values.

MKN45 cells = experiment: MKN45 cell proliferation assay (CellTiter-Glo); details: Homo sapiens, MKN-45, 72 h; MKN45 cell line; 3 days incubation; at least duplicate experiments; read-out: Prolif. IC50
Method: The effect of inhibitors on the proliferation of MKN45 cells was determined using the following protocol. MKN45 cells were plated in Corning 3917 96-well white tissue culture treated plates in growth medium (RPMI, 10% FCS) at a density of 5000 cells/well in a total volume of 135 μL and incubated at 37° C., 5% CO2, 95% humidity overnight. The following day, one-tenth volume of a 10× concentration of compounds was added to the wells in an 8-point dilution series. The dilution series was composed of an initial 1:5 dilution of a 10 mM stock of compound in DMSO, followed by serial 1:4 dilutions in DMSO, then a 1:20 dilution in growth medium prior to the 1:10 dilution into the cell plate. […] The typical dilution range is 10 μM to 0.6 nM. Once the compound was added to the cells, plates were incubated for 3 days at 37° C., 5% CO2 at 95% humidity. On the third day, after allowing all cells and reagents to come to room temperature, 25 μL of CellTiter-Glo reagent (Promega #G7573) was added to the wells. Plates were shaken on a platform for 10 minutes prior to reading luminescence for 0.1 seconds. The signal of the control wells was taken as 100% growth and growth inhibition was expressed as percent of control. IC50 values were determined from the percent of control data using a standard four-parameter model.
as §1, with “the MKN45” for “the Karpas-299”, “Table 2:” for “Table 5:”, “Table 2” for “Table 5”
Treatment of this cell line with a selective c-MET inhibitor led to induction of apoptosis and inhibition of proliferation, whereas non-MET-amplified cell lines were not affected [Smolen et al., Proc. Natl. Acad. Sci. USA, 103(7):2316-2321 (2006)]. This cell line is thus “driven” by c-MET, and antiproliferative effects correlate very well with the inhibition of c-MET phosphorylation so that the cell proliferation IC50, values can be used as surrogate for the c-MET cell mechanistic IC50, values. Under the assay conditions described herein, the IC50 values correlate nearly 1:1.

IC50 (RON) [nM] | IC50 (Karpas-299 cells) [nM] | IC50 (MKN45 cells) [nM] | SMILES
200 to 1000 | 50 to 200 | 50 to 200 | Cc1c(-c2cnc3[nH]cc([C@H](CF)c4c(Cl)ccc(F)c4Cl)c3c2)cnn1[C@H]1CC[C@H](O)CC1 [Example 118, trans-4-(4-{3-[(1S)-1-(2,6-Dichloro-3-fluorophenyl)-2-fluoroethyl]-1H-pyrrolo[2,3-b]pyridin-5-yl}-5-methyl-1H-pyrazol-1-yl)cyclohexanol]
> 1000 | 50 to 200 | 50 to 200 | COc1ccc(F)c(Cl)c1[C@@H](C)c1c[nH]c2ncc(-c3cnn([C@H]4CC[C@@H](N5CCNCC5)CC4)c3C)cc12 [Example 56, 3-[(1S)-1-(2-Chloro-3-fluoro-6-methoxyphenyl)ethyl]-5-{5-methyl-1-[cis-4-(piperazin-1-yl)cyclohexyl]-1H-pyrazol-4-yl}-1H-pyrrolo[2,3-b]pyridine]
≤ 200 | ≤ 50 | ≤ 50 | [2H][C@@](C)(c1c(OC(F)F)ccc(F)c1Cl)c1c[nH]c2ncc(-c3cnn([C@H]4CC[C@H](O)CC4)c3C)cc12 [Example 114, trans-4-(4-{3-[(1S)-1-[2-Chloro-6-(difluoromethoxy)-3-fluorophenyl](1-^2H)ethyl]-1H-pyrrolo[2,3-b]pyridin-5-yl}-5-methyl-1H-pyrazol-1-yl)cyclohexanol]
> 1000 | 50 to 200 | ≤ 50 | COc1ccc(F)c(Cl)c1[C@@H](C)c1c[nH]c2ncc(-c3cnn([C@H]4CC[C@@H](N5CCN(C(C)=O)CC5)CC4)c3C)cc12 [Example 57, 1-{4-[cis-4-(4-{3-[(1S)-1-(2-Chloro-3-fluoro-6-methoxyphenyl)ethyl]-1H-pyrrolo[2,3-b]pyridin-5-yl}-5-methyl-1H-pyrazol-1-yl)cyclohexyl]piperazin-1-yl}ethanone]

Second part, the molecule before the results:

SMILES | IC50 (RON) [nM] | IC50 (Karpas-299 cells) [nM] | IC50 (MKN45 cells) [nM]
Cc1c(-c2cnc3[nH]cc([C@H](C)c4c(OC(F)F)ccc(F)c4Cl)c3c2)cnn1C[C@@H](O)CO [Example 87, (2R)-3-[4-(3-{(1S)-1-[2-Chloro-6-(difluoromethoxy)-3-fluorophenyl]ethyl}-1H-pyrrolo[2,3-b]pyridin-5-yl)-5-methyl-1H-pyrazol-1-yl]propane-1,2-diol] | ≤ 200 | ≤ 50 | ≤ 50
COc1c(F)ccc(Cl)c1C(C)c1c[nH]c2ncc(-c3cnn([C@H]4CC[C@H](O)CC4)c3C)cc12 (stereo partly drawn) [Example 112, trans-4-(4-{3-[1-(6-Chloro-3-fluoro-2-methoxyphenyl)ethyl]-1H-pyrrolo[2,3-b]pyridin-5-yl}-5-methyl-1H-pyrazol-1-yl)cyclohexanol] | > 1000 | 200 to 1000 | > 1000
Cc1c(-c2cnc3[nH]cc(C(C)c4c(Cl)ccc(F)c4O)c3c2)cnn1[C@H]1CC[C@H](O)CC1 (stereo partly drawn) [Example 115, 3-Chloro-6-fluoro-2-(1-{5-[1-(trans-4-hydroxycyclohexyl)-5-methyl-1H-pyrazol-4-yl]-1H-pyrrolo[2,3-b]pyridin-3-yl}ethyl)-phenol] | > 1000 | ≤ 50 | 50 to 200
